# From patent US11053409B2, “Compositions for containers and other articles and methods of using same” (priority 2011, dated 2021)
# Test system: MCF-7, clone WS8, cells
# Assay: MCF-7 cell proliferation assay of estrogenic activity
# Assay type: cell-based, human
# Details: logarithmic (base 10) Relative Proliferative Effect relative to 17-beta estradiol; values stated as expected or measured
# Excerpt: The MCF-7 assay uses MCF-7, clone WS8, cells to measure whether and to what extent a substance induces cell proliferation via estrogen receptor (ER)-mediated pathways. The method is described in “Test Method Nomination: MCF-7 Cell Proliferation Assay of Estrogenic Activity” submitted for validation by CertiChem, Inc. to the National Toxicology Program Interagency Center for the Evaluation of Alternative Toxicological Methods (NICEATM) on Jan. 19, 2006 (available online at http://iccvam.niehs.nih.gov/methods/endocrine/endodocs/SubmDoc.pdf).
# A brief summary of the method of the aforementioned MCF-7 assay is provided below. MCF-7, clone WS8, cells are maintained at 37° C. in RMPI (or Roswell Park Memorial Institute medium) containing Phenol Red (e.g., GIBCO Catalog Number 11875119) and supplemented with the indicated additives for routine culture. An aliquot of cells maintained at 37° C. are grown for 2 days in phenol-free media containing 5% charcoal stripped fetal bovine serum in a 25 cm^2 tissue culture flask. Using a robotic dispenser such as an epMotion 5070 unit, MCF-7 cells are then seeded at 400 cells per well in 0.2 ml of hormone-free culture medium in Corning 96-well plates. The cells are adapted for 3 days in the hormone-free culture medium prior to adding the chemical to be assayed for estrogenic activity. The media containing the test chemical is replaced daily for 6 days. At the end of the 7-day exposure to the test chemical, the media is removed, the wells are washed once with 0.2 ml of HBSS (Hanks' Balanced Salt Solution), and then assayed to quantify amounts of DNA per well using a micro-plate modification of the Burton diphenylamine (DPA) assay, which is used to calculate the level of cell proliferation.
# RPE is the ratio between the EC50 of the test chemical and the EC50 of the control substance 17-beta estradiol times 100, where EC50 is “effective concentration 50%” or half-maximum stimulation concentration for cell proliferation measured as total DNA in the MCF-7 assay.
row,Structure (SMILES),Log RPE
1,"C[C@]12CC[C@@H]3c4ccc(O)cc4CC[C@H]3[C@@H]1CC[C@@H]2O [17β-estradiol, reference compound]",2.00
2,"Oc1ccc(Cc2ccc(O)cc2)cc1 [Bisphenol F, reference compound]",−2
3,"O=S(=O)(c1ccc(O)cc1)c1ccc(O)cc1 [Bisphenol S, reference compound]",−2
4,"O=c1c(-c2ccc(O)cc2)coc2cc(O)cc(O)c12 [Genistein, reference compound]",−2
5,Cc1cc(C(C)(C)c2cc(C)c(O)c(C)c2)cc(C)c1O [Structure 1],−2
6,Cc1cc(CCc2cc(C)c(O)c(C)c2)cc(C)c1O [Structure 2],−3
7,CC(c1ccc(O)cc1)(c1ccc(O)cc1)c1ccc(O)cc1 [Structure 3],−3
8,CC(c1ccccc1)(c1ccc(O)cc1)c1ccc(O)cc1 [Structure 4],−3
9,Cc1cc(Cc2cc(C)c(O)c(C)c2)cc(C)c1O [Structure 6],less than −4
10,CCCC(c1cc(C(C)(C)C)c(O)cc1C)c1cc(C(C)(C)C)c(O)cc1C [Structure 7],less than −4
11,CC(C)(C)c1cc(Cc2cc(C(C)(C)C)c(O)c(C(C)(C)C)c2)cc(C(C)(C)C)c1O [Structure 8],less than −4
12,Cc1cc(Cc2cc(C)cc(C(C)(C)C)c2O)c(O)c(C(C)(C)C)c1 [Structure 9],less than −4
13,CC(C)(c1ccc(O)cc1)c1ccc(C(C)(C)c2ccc(O)cc2)cc1 [Structure 10],less than −4
14,Oc1ccccc1Cc1ccccc1O [Structure 11],less than −4
15,Cc1cc(Cc2cc(C)cc(C3(C)CCCCC3)c2O)c(O)c(C2(C)CCCCC2)c1 [Structure 13],less than −4
16,CCc1cc(Cc2cc(CC)cc(C(C)(C)C)c2O)c(O)c(C(C)(C)C)c1 [Structure 15],less than −4
17,"C/C=C(/C(=C/C)c1ccc(O)cc1)c1ccc(O)cc1 [dienestrol, reference compound]",about 2
18,"CC/C(=C(/CC)c1ccc(O)cc1)c1ccc(O)cc1 [diethylstilbestrol, reference compound]",about 2

# Test system: not listed separately
# Assay: suitable genotoxicity assays (e.g., Ames II assay)
# Assay type: cell-based
# Details: not given
# Method: The mixture was stirred for 30 minutes at −10° C. Epichlorohydrin (1.9 liters, 24.2 moles) was added via dropping funnel at −10 to −5° C. The solution was allowed to warm up to room temperature and then was heated for 16 hours at a temperature of from 75 to 82° C. After cooling down to ambient temperature, the mixture was added to cold tap water (12 liters). Ethyl acetate (5 liters) was added to the mixture, which was stirred for 10 minutes and separated. The aqueous layer was extracted again with additional ethyl acetate (3 liters). The combined ethyl acetate extracts were washed twice with brine (2×6 liters), dried over anhydrous sodium sulfate (600 grams), and filtered. The solvent was removed under reduced pressure to give 887 grams of crude product as a purple oil. The crude product was dissolved in toluene (600 milliliters) and passed over a silica gel pad (1.4 kilograms), and eluted with a mixture of toluene and heptane (8 parts toluene to 2 parts heptane). The fractions containing product were combined and evaporated under reduced pressure. The product was mostly the desired diepoxide (756 grams, yellow oil which crystallizes in time), with some monoepoxide present. The purified material (756 grams) was dissolved at 70° C. in 2-propanol (2.3 liters) and then allowed to cool down to room temperature overnight. […]
row,Structure (SMILES),genotoxicity
1,CCCC(c1cc(C(C)(C)C)c(OCC2CO2)cc1C)c1cc(C(C)(C)C)c(OCC2CO2)cc1C (stereo not shown),non-genotoxic
2,"CC(C)(C)c1cc(Cc2cc(C(C)(C)C)c(OCC3CO3)c(C(C)(C)C)c2)cc(C(C)(C)C)c1OCC1CO1 (stereo not shown) [Diglycidyl ether of 4,4′-methylenebis(2,6-di-tert-butylphenol)]",non-genotoxic

# Target: T1, human estrogen receptor (Homo sapiens, UniProt P03372)
# T1 sequence (P03372 1-595): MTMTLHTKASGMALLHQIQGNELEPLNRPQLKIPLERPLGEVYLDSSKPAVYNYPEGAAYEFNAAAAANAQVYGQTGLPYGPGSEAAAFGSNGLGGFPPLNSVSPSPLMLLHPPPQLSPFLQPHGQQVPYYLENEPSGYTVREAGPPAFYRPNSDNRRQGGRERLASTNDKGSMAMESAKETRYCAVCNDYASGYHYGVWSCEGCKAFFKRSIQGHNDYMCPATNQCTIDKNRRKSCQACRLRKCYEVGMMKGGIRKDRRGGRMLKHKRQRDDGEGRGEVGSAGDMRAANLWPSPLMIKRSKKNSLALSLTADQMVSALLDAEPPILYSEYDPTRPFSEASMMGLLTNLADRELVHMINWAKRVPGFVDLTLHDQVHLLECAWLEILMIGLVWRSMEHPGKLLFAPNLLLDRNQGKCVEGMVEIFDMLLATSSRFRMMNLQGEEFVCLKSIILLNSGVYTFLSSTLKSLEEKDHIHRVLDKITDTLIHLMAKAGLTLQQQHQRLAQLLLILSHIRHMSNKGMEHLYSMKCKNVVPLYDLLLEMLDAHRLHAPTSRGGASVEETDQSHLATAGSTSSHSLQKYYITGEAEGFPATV
# Assay: suitable in vitro assay whose results are directly correlated to the MCF-7 assay
# Details: in vitro assay correlated to MCF-7 assay through common reference compounds
row,Structure (SMILES),estrogenic activity
1,Cc1cc(Cc2cc(C)c(O)c(C)c2)cc(C)c1O [Structure 6],do not exhibit appreciable estrogenic activity
2,"CCCC(c1cc(C(C)(C)C)c(O)cc1C)c1cc(C(C)(C)C)c(O)cc1C [Structure 7, 4,4′-butylidenebis(2-t-butyl-5-methylphenol)]",do not exhibit appreciable estrogenic activity
3,CC(C)(C)c1cc(Cc2cc(C(C)(C)C)c(O)c(C(C)(C)C)c2)cc(C(C)(C)C)c1O [Structure 8],do not exhibit appreciable estrogenic activity
4,Cc1cc(Cc2cc(C)cc(C(C)(C)C)c2O)c(O)c(C(C)(C)C)c1 [Structure 9],do not exhibit appreciable estrogenic activity
5,CC(C)(C)c1cc(O)c(C(C)(C)C)cc1O [Structure 12],do not exhibit appreciable estrogenic activity
